As to `CN(C)C(=O)CC1CCCCC1`, the logP was 2.19.
The molecule `CC(C)N(C(=O)c1ccccc1)C(C)C` yielded a logP of 2.5.
The molecule `CCNC(=O)c1ccc(OC)cc1` gave a logP of 1.14.
The value for `Cc1ccc(C(=O)N2CCCCC2)cc1` was 2.8; that for `O=C(CC1CCCCC1)N1CCCCC1` was 3.2.
Under `CC(C)N(C(=O)Cc1ccccc1)C(C)C` stands 3.1.
`CCNC(=O)Cc1ccccc1` displayed a logP of 1.
The molecule `CCNC(=O)c1ccc(C)cc1` returned a logP of 1.38.
In the case of `Cc1cccc(C(=O)N(C(C)C)C(C)C)c1`, the logP stood at 3.
Molecule `CCOc1ccccc1C(=O)N(CC)CC` came in with a logP of 2.5.
For `CCN(CC)C(=O)c1ccccc1Cl`, the logP was determined as 2.1.
`CCN(CC)C(=O)Cc1ccccc1` showed a logP of 2.4.
`CCNC(=O)c1cccc(C)c1` displayed a logP of 1.32.
For `Cc1ccc(C(=O)N(C)C)cc1`, the logP turned out to be 1.72.
`COc1ccc(C(=O)N2CCCCC2)cc1`: the logP turned out to be 2.4.
With `Cc1cccc(C(=O)N(C)C)c1`, the logP came to 1.6.
For the molecule `O=C(c1ccccc1Cl)N1CCCCC1`, the logP amounted to 2.8.
`CN(C)C(=O)c1ccccc1Cl` displayed a logP of 1.54.
On to `CC(C)N(C(=O)c1ccccc1Cl)C(C)C`, for which the logP was found to be 3.
The molecule `CCOc1ccccc1C(=O)N1CCCCC1` returned a logP of 2.6.
Under `COc1ccc(C(=O)N(C(C)C)C(C)C)cc1` stands 2.8; under `CCOc1ccccc1C(=O)N(C(C)C)C(C)C`, 3; under `CCNC(=O)CC1CCCCC1`, 2.28.
For the molecule `CCN(CC)C(=O)c1ccc(C)cc1`, the logP stood at 2.38.
Molecule `CCNC(=O)c1ccccc1OCC` registered a logP of 2.4.
In turn, `O=C(c1ccccc1)N1CCCCC1` had a logP of 2.2.
In turn, `Cc1ccc(C(=O)N(C(C)C)C(C)C)cc1` had a logP of 2.5.
The value for `CN(C)C(=O)Cc1ccccc1` was 1.48.
Consider `Cc1cccc(C(=O)N2CCCCC2)c1`, for which the logP came to 2.6.
Regarding `O=C(Cc1ccccc1)N1CCCCC1`, the logP turned out to be 2.44. This logP and that of the molecule before are within 0.2 log units of each other.
`CCN(CC)C(=O)CC1CCCCC1` returned a logP of 3.12.

In general, logP refers to the decadic logarithm of the partition coefficient of the neutral form, usually between octanol and water.

The record behind these values is the OPERA property sets (Mansouri et al. 2018).
